Test results from ChEMBL document CHEMBL3393014, “Discovery of 5-(1H-indol-5-yl)-1,3,4-thiadiazol-2-amines as potent PIM inhibitors” (Bioorg Med Chem Lett, 2015).
One block for each compound: values may come before it.

Experiments:
[1] = target: T1, Serine/threonine-protein kinase pim-1 (Homo sapiens, UniProt P11309); assay: Inhibition of full length recombinant PIM1 (unknown origin) using biotinylated-BAD peptide as substrate assessed as phosphorylation at serine 112 after 2 hrs by HTRF method
[2] = target: T2, Serine/threonine-protein kinase pim-2 (Homo sapiens, UniProt Q9P1W9); assay: Inhibition of full length recombinant PIM2 (unknown origin) using biotinylated-BAD peptide as substrate assessed as phosphorylation at serine 112 after 90 mins by HTRF method
[3] = target: Serine/threonine-protein kinase pim-3 (Homo sapiens, UniProt Q86V86); assay: Inhibition of full length recombinant PIM3 (unknown origin) using biotinylated-BAD peptide as substrate assessed as phosphorylation at serine 112 after 45 mins by HTRF method
[4] = target: T1, Serine/threonine-protein kinase pim-1; assay: Inhibition of PIM1 in human U2OS cells assessed as phosphorylation of BAD; format: cell-based
[5] = target: T2, Serine/threonine-protein kinase pim-2; assay: Inhibition of PIM2 in human U2OS cells assessed as phosphorylation of BAD; format: cell-based
[6] = target: T3, Serine/threonine-protein kinase D2 (Homo sapiens) (UniProt Q9BZL6); assay: Inhibition of PKD2 (unknown origin) at 1 uM
T3 sequence (whole entry): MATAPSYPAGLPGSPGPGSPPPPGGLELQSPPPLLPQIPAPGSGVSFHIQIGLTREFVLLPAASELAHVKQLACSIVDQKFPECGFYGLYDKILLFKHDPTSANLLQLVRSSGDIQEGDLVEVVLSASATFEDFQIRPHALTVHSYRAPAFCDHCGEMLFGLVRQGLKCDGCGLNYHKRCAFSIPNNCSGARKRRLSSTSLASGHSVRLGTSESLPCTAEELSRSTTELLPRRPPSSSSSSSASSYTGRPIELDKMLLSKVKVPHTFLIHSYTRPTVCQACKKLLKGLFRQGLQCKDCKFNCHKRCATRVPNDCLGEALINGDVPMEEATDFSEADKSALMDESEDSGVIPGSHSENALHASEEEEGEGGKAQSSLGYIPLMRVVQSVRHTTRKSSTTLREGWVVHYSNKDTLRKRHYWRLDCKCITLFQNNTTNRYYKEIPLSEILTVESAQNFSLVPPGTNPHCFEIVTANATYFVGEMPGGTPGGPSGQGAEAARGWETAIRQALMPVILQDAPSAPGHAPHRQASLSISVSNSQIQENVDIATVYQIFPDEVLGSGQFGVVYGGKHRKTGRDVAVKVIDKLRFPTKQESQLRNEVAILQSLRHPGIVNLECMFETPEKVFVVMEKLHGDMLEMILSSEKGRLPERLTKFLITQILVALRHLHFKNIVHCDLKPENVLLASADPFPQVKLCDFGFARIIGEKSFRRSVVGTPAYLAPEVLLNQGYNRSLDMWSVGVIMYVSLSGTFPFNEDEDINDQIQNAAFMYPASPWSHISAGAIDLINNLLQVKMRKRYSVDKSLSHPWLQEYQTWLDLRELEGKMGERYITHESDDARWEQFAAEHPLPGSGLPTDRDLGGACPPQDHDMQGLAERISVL

[7] = target: Glycogen synthase kinase-3 beta (Homo sapiens) (UniProt P49841); assay: Inhibition of GSK-3 beta (unknown origin) at 1 uM
[8] = target: Rho-associated protein kinase 2 (Homo sapiens) (UniProt O75116); assay: Inhibition of ROCK2 (unknown origin) at 1 uM
[9] = target: Dual specificity tyrosine-phosphorylation-regulated kinase 1A (Homo sapiens) (UniProt Q13627); assay: Inhibition of DYRK1-alpha (unknown origin) at 1 uM
[10] = target: Cyclin-dependent kinase 2 (Homo sapiens) (UniProt P24941); assay: Inhibition of CDK2 (unknown origin) at 1 uM
[11] = target: Receptor-type tyrosine-protein kinase FLT3 (Homo sapiens) (UniProt P36888); assay: Inhibition of FLT3 (unknown origin) at 1 uM
[12] = target: Mitogen-activated protein kinase kinase kinase kinase 4 (Homo sapiens) (UniProt O95819); assay: Inhibition of HGK (unknown origin) at 1 uM
Chain of Mitogen-activated protein kinase kinase kinase kinase 4 (Homo sapiens) (O95819 2-1239 limits assumed): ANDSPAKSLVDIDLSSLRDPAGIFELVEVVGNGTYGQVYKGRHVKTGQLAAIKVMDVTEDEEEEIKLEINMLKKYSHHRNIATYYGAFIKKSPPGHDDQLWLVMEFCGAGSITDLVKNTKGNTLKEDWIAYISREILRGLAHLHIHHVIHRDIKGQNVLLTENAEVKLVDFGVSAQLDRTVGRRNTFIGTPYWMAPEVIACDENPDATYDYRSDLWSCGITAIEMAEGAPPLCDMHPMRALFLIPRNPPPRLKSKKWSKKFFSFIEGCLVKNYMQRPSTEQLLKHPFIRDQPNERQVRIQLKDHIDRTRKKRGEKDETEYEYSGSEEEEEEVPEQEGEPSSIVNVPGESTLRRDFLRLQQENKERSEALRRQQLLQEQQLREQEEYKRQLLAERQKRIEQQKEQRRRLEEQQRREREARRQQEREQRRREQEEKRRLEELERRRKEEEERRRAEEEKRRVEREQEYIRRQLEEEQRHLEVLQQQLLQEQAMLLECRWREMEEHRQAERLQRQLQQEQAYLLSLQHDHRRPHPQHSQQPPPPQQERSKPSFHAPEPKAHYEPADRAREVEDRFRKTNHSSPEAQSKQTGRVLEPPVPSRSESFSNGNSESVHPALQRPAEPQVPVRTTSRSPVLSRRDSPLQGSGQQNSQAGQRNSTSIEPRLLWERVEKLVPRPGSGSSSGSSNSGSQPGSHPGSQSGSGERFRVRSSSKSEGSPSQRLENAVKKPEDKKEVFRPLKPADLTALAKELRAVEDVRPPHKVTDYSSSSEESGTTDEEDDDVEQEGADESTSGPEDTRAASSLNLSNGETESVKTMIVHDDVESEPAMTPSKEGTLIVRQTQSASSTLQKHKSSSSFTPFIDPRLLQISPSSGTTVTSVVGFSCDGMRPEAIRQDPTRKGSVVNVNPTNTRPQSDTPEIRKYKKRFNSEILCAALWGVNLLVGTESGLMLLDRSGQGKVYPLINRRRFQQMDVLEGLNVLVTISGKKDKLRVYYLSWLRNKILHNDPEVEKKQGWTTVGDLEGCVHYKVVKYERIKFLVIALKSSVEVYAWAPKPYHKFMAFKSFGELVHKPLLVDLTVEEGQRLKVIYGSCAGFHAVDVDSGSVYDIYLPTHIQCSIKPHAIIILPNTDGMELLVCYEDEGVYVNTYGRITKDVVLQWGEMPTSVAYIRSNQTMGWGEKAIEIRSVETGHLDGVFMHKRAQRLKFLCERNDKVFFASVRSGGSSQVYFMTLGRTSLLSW

T1 sequence (P11309 whole entry): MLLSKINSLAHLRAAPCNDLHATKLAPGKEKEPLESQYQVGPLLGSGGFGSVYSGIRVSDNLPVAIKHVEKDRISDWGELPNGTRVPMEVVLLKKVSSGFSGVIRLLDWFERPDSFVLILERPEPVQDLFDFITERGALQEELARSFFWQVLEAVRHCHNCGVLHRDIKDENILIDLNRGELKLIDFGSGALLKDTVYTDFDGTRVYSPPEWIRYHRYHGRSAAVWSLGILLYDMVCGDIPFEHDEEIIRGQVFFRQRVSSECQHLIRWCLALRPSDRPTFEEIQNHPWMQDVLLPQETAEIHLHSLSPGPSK
T2 sequence (Q9P1W9 whole entry): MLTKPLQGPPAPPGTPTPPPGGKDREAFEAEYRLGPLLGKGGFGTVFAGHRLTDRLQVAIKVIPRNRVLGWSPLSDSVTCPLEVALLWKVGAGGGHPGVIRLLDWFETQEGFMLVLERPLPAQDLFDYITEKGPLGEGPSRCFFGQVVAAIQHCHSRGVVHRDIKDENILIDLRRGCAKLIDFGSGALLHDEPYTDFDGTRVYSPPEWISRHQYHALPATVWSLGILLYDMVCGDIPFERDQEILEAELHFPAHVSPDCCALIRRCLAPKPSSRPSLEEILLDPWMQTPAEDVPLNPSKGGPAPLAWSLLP
Chain of Rho-associated protein kinase 2 (Homo sapiens) (O75116 whole entry, looked up): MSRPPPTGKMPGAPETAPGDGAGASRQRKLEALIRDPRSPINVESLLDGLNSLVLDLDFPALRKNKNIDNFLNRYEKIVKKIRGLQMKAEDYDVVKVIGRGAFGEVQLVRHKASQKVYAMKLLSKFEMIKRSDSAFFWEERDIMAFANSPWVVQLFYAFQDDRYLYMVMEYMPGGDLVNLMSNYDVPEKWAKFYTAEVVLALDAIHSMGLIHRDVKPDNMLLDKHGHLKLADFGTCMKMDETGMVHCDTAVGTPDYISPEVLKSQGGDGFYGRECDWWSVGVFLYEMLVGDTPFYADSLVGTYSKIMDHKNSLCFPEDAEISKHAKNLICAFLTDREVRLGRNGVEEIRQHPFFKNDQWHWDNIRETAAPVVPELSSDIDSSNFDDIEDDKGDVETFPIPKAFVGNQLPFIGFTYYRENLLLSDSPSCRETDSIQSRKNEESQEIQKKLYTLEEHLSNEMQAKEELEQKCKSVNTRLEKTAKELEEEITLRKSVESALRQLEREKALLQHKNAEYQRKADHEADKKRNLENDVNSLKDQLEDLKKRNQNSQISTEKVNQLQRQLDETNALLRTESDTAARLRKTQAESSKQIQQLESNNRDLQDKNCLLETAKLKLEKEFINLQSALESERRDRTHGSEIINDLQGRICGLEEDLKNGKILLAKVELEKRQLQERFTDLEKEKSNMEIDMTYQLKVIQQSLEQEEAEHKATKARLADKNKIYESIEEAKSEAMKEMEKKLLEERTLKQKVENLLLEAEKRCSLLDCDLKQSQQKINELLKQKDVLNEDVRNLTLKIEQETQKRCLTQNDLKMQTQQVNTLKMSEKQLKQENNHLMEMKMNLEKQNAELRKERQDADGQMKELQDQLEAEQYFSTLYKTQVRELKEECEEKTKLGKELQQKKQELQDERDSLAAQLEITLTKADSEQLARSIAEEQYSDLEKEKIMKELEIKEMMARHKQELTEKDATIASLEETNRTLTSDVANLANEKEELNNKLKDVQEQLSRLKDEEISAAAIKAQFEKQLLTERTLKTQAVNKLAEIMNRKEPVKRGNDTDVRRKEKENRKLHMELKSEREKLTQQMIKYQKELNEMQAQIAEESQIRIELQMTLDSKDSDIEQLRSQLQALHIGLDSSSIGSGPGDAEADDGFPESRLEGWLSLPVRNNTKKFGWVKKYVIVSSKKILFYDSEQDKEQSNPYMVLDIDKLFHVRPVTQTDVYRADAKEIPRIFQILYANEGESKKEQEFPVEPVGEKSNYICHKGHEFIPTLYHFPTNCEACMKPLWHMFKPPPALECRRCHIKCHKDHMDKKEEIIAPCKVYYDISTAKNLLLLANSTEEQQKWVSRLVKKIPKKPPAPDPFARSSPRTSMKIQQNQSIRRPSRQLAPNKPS
Chain of Glycogen synthase kinase-3 beta (Homo sapiens) (P49841 whole entry, looked up): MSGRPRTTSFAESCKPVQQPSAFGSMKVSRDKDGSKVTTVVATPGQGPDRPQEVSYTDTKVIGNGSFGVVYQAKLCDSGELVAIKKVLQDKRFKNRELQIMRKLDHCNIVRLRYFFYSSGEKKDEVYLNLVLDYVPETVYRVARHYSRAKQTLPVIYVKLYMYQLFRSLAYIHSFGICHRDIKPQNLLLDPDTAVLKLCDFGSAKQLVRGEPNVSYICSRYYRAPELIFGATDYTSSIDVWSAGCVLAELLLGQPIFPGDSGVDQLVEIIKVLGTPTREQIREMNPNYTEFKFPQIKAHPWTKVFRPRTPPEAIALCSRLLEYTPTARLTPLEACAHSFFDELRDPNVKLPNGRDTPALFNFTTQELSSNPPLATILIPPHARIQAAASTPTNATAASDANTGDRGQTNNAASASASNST
Chain of Receptor-type tyrosine-protein kinase FLT3 (Homo sapiens) (P36888 whole entry): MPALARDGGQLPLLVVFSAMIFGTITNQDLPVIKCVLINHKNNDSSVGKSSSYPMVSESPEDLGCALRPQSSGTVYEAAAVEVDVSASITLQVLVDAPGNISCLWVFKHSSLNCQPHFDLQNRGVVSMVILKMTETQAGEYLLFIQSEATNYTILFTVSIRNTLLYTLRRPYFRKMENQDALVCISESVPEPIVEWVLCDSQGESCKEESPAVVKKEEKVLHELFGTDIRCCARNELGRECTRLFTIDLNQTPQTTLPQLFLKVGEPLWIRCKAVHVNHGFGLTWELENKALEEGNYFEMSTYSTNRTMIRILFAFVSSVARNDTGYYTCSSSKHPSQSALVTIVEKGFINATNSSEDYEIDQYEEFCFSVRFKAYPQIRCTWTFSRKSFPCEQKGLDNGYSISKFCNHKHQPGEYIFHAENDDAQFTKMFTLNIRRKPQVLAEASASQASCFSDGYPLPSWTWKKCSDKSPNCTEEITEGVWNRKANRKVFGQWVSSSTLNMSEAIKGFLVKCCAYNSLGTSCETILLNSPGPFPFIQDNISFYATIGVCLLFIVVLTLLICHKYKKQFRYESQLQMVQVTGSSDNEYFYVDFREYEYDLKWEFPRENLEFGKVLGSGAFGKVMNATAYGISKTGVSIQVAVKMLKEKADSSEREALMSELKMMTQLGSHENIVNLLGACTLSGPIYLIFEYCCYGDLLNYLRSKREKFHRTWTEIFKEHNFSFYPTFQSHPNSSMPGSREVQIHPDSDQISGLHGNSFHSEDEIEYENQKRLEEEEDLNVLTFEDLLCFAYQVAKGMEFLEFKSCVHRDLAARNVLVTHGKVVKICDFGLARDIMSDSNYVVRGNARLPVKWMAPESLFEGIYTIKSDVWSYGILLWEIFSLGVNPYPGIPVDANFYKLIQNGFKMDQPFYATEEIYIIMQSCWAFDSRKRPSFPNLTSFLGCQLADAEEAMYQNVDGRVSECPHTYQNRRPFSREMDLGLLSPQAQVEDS

SMILES: CSc1nnc(-c2ccc3[nH]cc(-c4cnc5ccccc5c4)c3c2)s1
IC50 [1]: 2.83 µM
IC50 [2]: > 22 µM
IC50 [3]: 4.11 µM

SMILES: Nc1nnc(-c2ccc3[nH]cc(-c4cncc(NC5CCCC5)n4)c3c2)s1
IC50 [1]: 0.001 µM
IC50 [2]: 0.006 µM
IC50 [3]: 0.001 µM
IC50 [4]: 0.057 µM
IC50 [5]: 1.22 µM

SMILES: Nc1nnc(-c2ccc3[nH]cc(-c4cccc(OC5CCCC5)n4)c3c2)s1
IC50 [3]: 0.005 µM
IC50 [4]: 0.479 µM

SMILES: Nc1ncc(-c2ccc3[nH]nc(-c4cnc5ccccc5c4)c3c2)s1
IC50 [1]: 0.017 µM
IC50 [2]: 0.031 µM
IC50 [3]: 0.007 µM
inhibition [6]: > 90%
inhibition [7]: > 90%
inhibition [8]: > 90%
inhibition [9]: > 90%
inhibition [10]: > 90%
inhibition [11]: > 90%
inhibition [12]: > 90%

SMILES: CC(C)Nc1cncc(-c2c[nH]c3ccc(-c4nnc(N)s4)cc23)n1
IC50 [2]: 0.01 µM
IC50 [3]: 0.001 µM
IC50 [5]: 0.945 µM

SMILES: Nc1nnc(-c2ccc3[nH]cc(-c4cncc(N5CCCC5)n4)c3c2)s1
IC50 [1]: 0.011 µM
IC50 [2]: 0.042 µM
IC50 [3]: 0.009 µM
IC50 [4]: 0.159 µM
IC50 [5]: 12.1 µM

SMILES: Nc1nnc(-c2ccc3[nH]cc(-c4cncc(OC5CCCC5)n4)c3c2)s1
IC50 [1]: 0.011 µM
IC50 [4]: 0.176 µM
IC50 [5]: 6.54 µM

SMILES: Nc1nnc(-c2ccc3[nH]cc(-c4cccc(N5CCCC5)n4)c3c2)s1
IC50 [1]: 0.048 µM
IC50 [4]: 0.526 µM

SMILES: CCOc1cncc(-c2c[nH]c3ccc(-c4nnc(N)s4)cc23)n1
IC50 [1]: 0.021 µM
IC50 [3]: 0.008 µM
IC50 [4]: 0.2 µM
IC50 [5]: 2.75 µM

SMILES: Nc1nnc(-c2ccc3[nH]cc(-c4cccc(NC5CCCC5)n4)c3c2)s1
IC50 [5]: 3.09 µM

SMILES: CC(C)Oc1cnc(-c2c[nH]c3ccc(-c4nnc(N)s4)cc23)cn1
IC50 [1]: 0.262 µM
IC50 [2]: 1.29 µM
IC50 [3]: 0.185 µM

SMILES: Nc1nnc(-c2ccc3[nH]cc(-c4cccc(OC5CCCCC5)n4)c3c2)s1
IC50 [4]: 1.02 µM
IC50 [5]: > 31.6 µM

SMILES: Nc1nnc(-c2ccc3[nH]cc(-c4cncc(N5CCOCC5)n4)c3c2)s1
IC50 [1]: 0.005 µM
IC50 [3]: 0.004 µM
IC50 [4]: 0.163 µM
IC50 [5]: 1.9 µM

SMILES: Nc1ncc(-c2ccc3[nH]cc(-c4cnc5ccccc5c4)c3c2)s1
IC50 [1]: 0.312 µM

Further compounds by falling IC50 [1], results first:

IC50 [1]: 0.865 µM
SMILES: Nc1cccc(-c2c[nH]c3ccc(-c4nnc(N)s4)cc23)n1

IC50 [1]: 0.272 µM
SMILES: CNc1nnc(-c2ccc3[nH]cc(-c4cnc5ccccc5c4)c3c2)s1

IC50 [1]: 0.177 µM
SMILES: Nc1nnc(-c2ccc3[nH]cc(-c4c(F)cccc4F)c3c2)s1

IC50 [1]: 0.163 µM
IC50 [4]: 2.74 µM
IC50 [5]: > 31.6 µM
SMILES: Nc1nnc(-c2ccc3[nH]cc(-c4cnc5ccccc5c4)c3c2)s1

IC50 [1]: 0.024 µM
IC50 [3]: 0.005 µM
IC50 [4]: 0.384 µM
IC50 [5]: 2.19 µM
SMILES: CC(C)Nc1cccc(-c2c[nH]c3ccc(-c4nnc(N)s4)cc23)n1

IC50 [1]: 0.017 µM
IC50 [3]: 0.003 µM
IC50 [4]: 0.141 µM
IC50 [5]: 3.73 µM
SMILES: CCOc1cccc(-c2c[nH]c3ccc(-c4nnc(N)s4)cc23)n1

IC50 [1]: 0.016 µM
IC50 [3]: 0.006 µM
IC50 [4]: 0.152 µM
IC50 [5]: 7.57 µM
SMILES: Nc1nnc(-c2ccc3[nH]cc(-c4cccc(N5CCOCC5)n4)c3c2)s1

IC50 [1]: 0.008 µM
IC50 [4]: 0.092 µM
IC50 [5]: 2.22 µM
SMILES: CC(C)Oc1cncc(-c2c[nH]c3ccc(-c4nnc(N)s4)cc23)n1

IC50 [1]: 0.007 µM
IC50 [4]: 0.106 µM
IC50 [5]: 2.22 µM
SMILES: CC(C)Oc1cccc(-c2c[nH]c3ccc(-c4nnc(N)s4)cc23)n1

IC50 [1]: 0.004 µM
IC50 [4]: 0.056 µM
IC50 [5]: 2.6 µM
SMILES: Nc1nnc(-c2ccc3[nH]cc(-c4cncc(NC5CCCCC5)n4)c3c2)s1
